Measurements taken from US20110039763A1, “TARGETED ANTIMICROBIAL MOIETIES” (C3 JIAN, INC., priority 2009, published 2011).
Entries after “also recorded” stand apart in the source; their conditions may differ.

Test system: microorganisms
Assay: Targeting peptide binding to target microorganisms (Tables 3, 10, 12)
Settings: microorganism(s) the targeting peptide binds, preferably 1x PBS
[1] = binding in aqueous buffers varied with peptide solubility
[2] = binding in aqueous buffers that varied with peptide solubility

| Substance | Target(s) [1] | Target(s) [2] |
| --- | --- | --- |
| MKKLVAALAVIVILTGCVYDPVNYDKIHDQEFQDHLRQNG [PF-252] | S. mutans |  |
| MLTSRKKRLKKIVEEQNKKDESI [PF-336] | S. mutans; also recorded: E. coli |  |
| PEIIKIVSGLL [PF-758] | S. epidermidis and M. luteus and E. coli and MRSA and S. pneumoniae and E. faecalis and C. jeikeium |  |
| PF670 (chain 1 TVIVAPMHSGV; chain 2 TVIVAPMHSGV; Peptide with targeting and/or antimicrobial activity) | Mycobacteria spp |  |
| PF-014 (HPTDNKHN; Peptide with targeting and/or antimicrobial activity) |  | E. coli; also recorded: C. jeikeium |
| PF-016 (RKQYDDLSFNFLY; Peptide with targeting and/or antimicrobial activity) |  | S. epidermidis; also recorded: E. faecalis; also recorded: C. jeikeium |
| PF-018 (YYKTYFKEV; Peptide with targeting and/or antimicrobial activity) |  | E. coli; also recorded: C. jeikeium |
| PF-038 (MAYKDEGKETKFAVKGYKD; Peptide with targeting and/or antimicrobial activity) |  | M. luteus |
| PF-039 (MLEEKNKSL; Peptide with targeting and/or antimicrobial activity) |  | P. mirabilis; also recorded: C. jeikeium |
| PF-044 (KLKKYIHKPD; Peptide with targeting and/or antimicrobial activity) |  | S. epidermidis and M. luteus and MRSA and C. jeikeium |
| PF-047 (NQEPSLQQDKEQKDNKG; Peptide with targeting and/or antimicrobial activity) |  | S. mutans |
| PF-050 (SYYLKRREEKGK; Peptide with targeting and/or antimicrobial activity) |  | S. epidermidis; also recorded: M. luteus; also recorded: E. coli; also recorded: C. jeikeium |
| PF-054 (VSISRFIGGGHVFNGNNKRNL; Peptide with targeting and/or antimicrobial activity) |  | S. epidermidis; also recorded: E. coli |
| PF-055 (GHVFNGNNKRNL; Peptide with targeting and/or antimicrobial activity) |  | S. mutans |
| PF-060 (HSSHL; Peptide with targeting and/or antimicrobial activity) |  | E. coli; also recorded: C. albicans; also recorded: C. jeikeium |
| PF-062 (MKKKRINNDILGRMIYSSSIDKRNLYNLKYYE; Peptide with targeting and/or antimicrobial activity) |  | S. epidermidis and M. luteus and E. coli and P. aeruginosa and MRSA and S. pneumoniae and E. faecalis and C. jeikeium |
| PF-097 (QPTQGEQGTRPRRPTPMRGLLI; Peptide with targeting and/or antimicrobial activity) | C. jeikeium |  |
| PF-101 (DPVPERQEQACACHRTAKPGK; Peptide with targeting and/or antimicrobial activity) | S. mutans |  |
| PF-104 (ERTAVNDLWI; Peptide with targeting and/or antimicrobial activity) | MRSA and C. jeikeium |  |
| PF-130 (LQRSDEESMPRRHEKYS; Peptide with targeting and/or antimicrobial activity) | E. faecalis; also recorded: C. jeikeium; also recorded: C. jejuni |  |
| PF-131 (RRAAARTKGNRR; Peptide with targeting and/or antimicrobial activity) | S. epidermidis and E. coli and MRSA and C. jeikeium |  |

| Substance | Target(s) [1] | Target(s) [2] |
| --- | --- | --- |
| PF-132 (RPGDGAAEQGRSR; Peptide with targeting and/or antimicrobial activity) | S. epidermidis; also recorded: C. jeikeium |  |
| PF-134 (GKAMKRQDCSAL; Peptide with targeting and/or antimicrobial activity) | S. epidermidis; also recorded: C. jeikeium |  |
| PF-138 (AVHHSLLFR; Peptide with targeting and/or antimicrobial activity) | S. epidermidis and M. luteus and P. mirabilis and E. coli and C. albicans and MRSA and C. jeikeium and C. jejuni |  |
| PF-141 (VVRRFQGM; Peptide with targeting and/or antimicrobial activity) | S. epidermidis and M. luteus and C. albicans and MRSA and C. jeikeium |  |
| PF-142 (GIDRGCQAAR; Peptide with targeting and/or antimicrobial activity) | S. mutans |  |
| PF-146 (GCGKRRIITKSASRDTR; Peptide with targeting and/or antimicrobial activity) | S. epidermidis and M. luteus and P. aeruginosa and C. albicans and MRSA and C. jeikeium |  |
| PF-147 (RRPRRRRSGHGQSASAA; Peptide with targeting and/or antimicrobial activity) | S. epidermidis and M. luteus and MRSA |  |
| PF-150 (EIQAKGTG; Peptide with targeting and/or antimicrobial activity) | S. epidermidis and MRSA |  |
| PF-151 (EEYPARVPLSGEDVTEARRH; Peptide with targeting and/or antimicrobial activity) | S. epidermidis and MRSA and E. faecalis and C. jeikeium |  |
| PF-152 (VGYFIWKDSHSRKG; Peptide with targeting and/or antimicrobial activity) | S. epidermidis and C. albicans and MRSA and E. faecalis and C. jeikeium |  |
| PF-154 (GIKKSKHPSTDDYVVKTTIDSL; Peptide with targeting and/or antimicrobial activity) | S. mutans |  |
| PF-155 (GRYGDDSKERQGRAQ; Peptide with targeting and/or antimicrobial activity) | C. jeikeium |  |
| PF-158 (VRLESRPADLPE; Peptide with targeting and/or antimicrobial activity) | S. epidermidis |  |
| PF-159 (TMAFVEKAQLRVPVGDDLPV; Peptide with targeting and/or antimicrobial activity) | S. epidermidis |  |
| PF-160 (SFHASLTKNEKPIKSTG; Peptide with targeting and/or antimicrobial activity) | S. epidermidis |  |
| PF-161 (RGRALASTATTRPARRRR; Peptide with targeting and/or antimicrobial activity) | S. epidermidis; also recorded: M. luteus; also recorded: E. coli; also recorded: C. jejuni |  |
| PF-162 (GIRRLHSVENLNREISHRMAGLR; Peptide with targeting and/or antimicrobial activity) | S. epidermidis and MRSA |  |
| PF-163 (TSWLRAAERQEIGEPTKTFGEKTTSL; Peptide with targeting and/or antimicrobial activity) | S. epidermidis |  |
| PF-165 (GPVSVVASLRRGTTVQRHSQNNHNKGKP; Peptide with targeting and/or antimicrobial activity) | MRSA and C. jejuni |  |
| PF-166 (SKAVSRKRSI; Peptide with targeting and/or antimicrobial activity) | E. coli; also recorded: C. jeikeium |  |
| PF-169 (APGSAADSPRSRADD; Peptide with targeting and/or antimicrobial activity) | S. epidermidis; also recorded: E. coli; also recorded: C. albicans; also recorded: E. faecalis; also recorded: C. jeikeium |  |
